# Source: ChEMBL document CHEMBL1148480, “Structure-activity studies of orexin a and orexin B at the human orexin 1 and orexin 2 receptors led to orexin 2 receptor selective and orexin 1 receptor preferring ligands” (J Med Chem, 2004)
# Starred links: 1 amine or outer side, 2 acyl side, 3 side chain; linkers in the order of their positions; H or OH if unused. Non-standard residues stand in square brackets, D forms with d. Residues, ends and D or L forms follow the SMILES beside them. Groups on a side chain read outwards from the residue. X2 = N=C(N)NCCC[C@@H](C(=O)[*:2])N(CCCCCC(=O)[C@H](CC(=O)O)N[*:3])[*:1]; pGlu = O=C1CC[C@@H](C(=O)O)N1
# Biological target: T1, Orexin receptor type 2 (Homo sapiens, UniProt O43614)
# T1 sequence (O43614 whole entry): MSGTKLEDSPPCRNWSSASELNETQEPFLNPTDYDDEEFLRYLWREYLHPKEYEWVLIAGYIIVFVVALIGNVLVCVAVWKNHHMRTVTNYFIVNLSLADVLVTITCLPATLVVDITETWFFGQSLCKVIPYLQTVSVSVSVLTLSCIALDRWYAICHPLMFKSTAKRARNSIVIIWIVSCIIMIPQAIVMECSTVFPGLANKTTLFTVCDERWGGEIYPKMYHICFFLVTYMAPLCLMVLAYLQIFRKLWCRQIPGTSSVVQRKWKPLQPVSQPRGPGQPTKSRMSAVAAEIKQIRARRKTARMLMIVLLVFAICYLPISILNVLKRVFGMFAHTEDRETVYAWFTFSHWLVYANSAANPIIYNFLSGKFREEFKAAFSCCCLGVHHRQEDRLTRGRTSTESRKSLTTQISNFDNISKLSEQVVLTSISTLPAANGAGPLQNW
# Assay: Effective agonist concentration to the human Orexin receptor type 2 was determined using the Xlfit program
# Assay type: functional
row,Compound,EC50 [µM]
1,CC(C)C[C@H](NC(=O)[C@@H]1CCCN1C(=O)[C@@H]1CCC(=O)N1)C(=O)N1CCC[C@H]1C(=O)N[C@@H](CC(=O)O)C(=O)N[C@@H](CS)C(=O)N[C@@H](CS)C(=O)N[C@@H](CCCN=C(N)N)C(=O)N[C@@H](CCC(N)=O)C(=O)N[C@@H](CCCCN)C(=O)N[C@H](C(=O)O)[C@@H](C)O,> 1000
2,CC(C)C[C@H](NC(=O)[C@@H]1CCCN1C(=O)[C@@H]1CCC(=O)N1)C(=O)N1CCC[C@H]1C(=O)N[C@@H](CC(=O)O)C(=O)N[C@@H](CS)C(=O)N[C@@H](CS)C(=O)N[C@@H](CCCN=C(N)N)C(=O)N[C@@H](CCC(N)=O)C(=O)N[C@@H](CCCCN)C(=O)N[C@H](C(=O)N[C@@H](CS)C(=O)N[C@@H](CO)C(=O)O)[C@@H](C)O,> 1000
3,CC[C@H](C)[C@H](NC(=O)CNC(=O)[C@H](C)NC(=O)[C@H](C)NC(=O)[C@H](Cc1cnc[nH]1)NC(=O)[C@H](CC(N)=O)NC(=O)CNC(=O)[C@H](CO)NC(=O)[C@H](C)NC(=O)[C@H](CCC(N)=O)NC(=O)[C@H](CC(C)C)NC(=O)[C@H](CC(C)C)NC(=O)[C@H](CCCNC(=N)N)NC(=O)[C@H](CCC(N)=O)NC(=O)[C@@H]1CCCN1C(=O)[C@H](CCCNC(=N)N)NC(=O)CNC(=O)[C@H](CCC(N)=O)NC(=O)[C@H](CC(C)C)NC(=O)CN)C(=O)N[C@@H](CC(C)C)C(=O)N[C@H](C(=O)N[C@@H](CCSC)C(=O)O)[C@@H](C)O (H-GLQGRPQRLLQASGNHAAGILTM-OH),0.79
4,CC[C@H](C)[C@H](NC(=O)CNC(=O)[C@H](C)NC(=O)[C@H](C)NC(=O)[C@H](Cc1c[nH]cn1)NC(=O)[C@H](CC(N)=O)NC(=O)CN)C(=O)N[C@@H](CC(C)C)C(=O)N[C@H](C(=O)N[C@@H](CC(C)C)C(=O)O)[C@@H](C)O (H-GNHAAGILTL-OH),> 1000
5,CC[C@H](C)[C@H](NC(=O)CNC(=O)[C@H](C)NC(=O)[C@H](C)NC(=O)[C@H](Cc1cnc[nH]1)NC(=O)[C@H](CC(N)=O)NC(=O)CNC(=O)[C@H](CO)NC(=O)[C@H](C)NC(=O)[C@H](CCC(N)=O)NC(=O)[C@H](CC(C)C)NC(=O)[C@H](CC(C)C)NC(=O)[C@H](CCCNC(=N)N)NC(=O)[C@H](CCC(N)=O)NC(=O)[C@H](CC(C)C)NC(=O)[C@H](CCCNC(=N)N)NC(=O)CNC(=O)[C@H](CCC(N)=O)NC(=O)[C@@H]1CCCN1C(=O)CN)C(=O)N[C@@H](CC(C)C)C(=O)N[C@H](C(=O)N[C@@H](CCSC)C(=O)O)[C@@H](C)O (H-GPQGRLQRLLQASGNHAAGILTM-OH),0.06
6,CC[C@H](C)[C@H](NC(=O)CNC(=O)[C@H](C)NC(=O)[C@H](C)NC(=O)[C@@H](N)Cc1cnc[nH]1)C(=O)N[C@@H](CC(C)C)C(=O)N[C@H](C(=O)N[C@@H](CC(C)C)C(=O)O)[C@@H](C)O (H-HAAGILTL-OH),> 1000
7,CC[C@H](C)[C@H](NC(=O)CNC(=O)[C@H](C)NC(=O)[C@H](C)NC(=O)[C@H](Cc1c[nH]cn1)NC(=O)[C@H](CC(N)=O)NC(=O)CNC(=O)[C@H](C)NC(=O)CNC(=O)[C@H](Cc1c[nH]cn1)NC(=O)[C@H](CC(C)C)NC(=O)[C@@H](N)CC(C)C)C(=O)N[C@@H](CC(C)C)C(=O)N[C@H](C(=O)N[C@@H](CC(C)C)C(=O)O)[C@@H](C)O (H-LLHGAGNHAAGILTL-OH),> 1000
8,CC[C@H](C)[C@H](NC(=O)CNC(=O)[C@H](C)NC(=O)[C@H](C)NC(=O)[C@H](Cc1cnc[nH]1)NC(=O)[C@H](CC(N)=O)NC(=O)CNC(=O)[C@H](CO)NC(=O)[C@H](C)NC(=O)[C@H](CCC(N)=O)NC(=O)[C@H](CC(C)C)NC(=O)[C@@H](N)CC(C)C)C(=O)N[C@@H](CC(C)C)C(=O)N[C@H](C(=O)N[C@@H](CCSC)C(=O)O)[C@@H](C)O (H-LLQASGNHAAGILTM-OH),> 1000
9,CC[C@H](C)[C@H](NC(=O)CNC(=O)[C@H](C)NC(=O)[C@H](C)NC(=O)[C@H](Cc1cnc[nH]1)NC(=O)[C@H](CC(N)=O)NC(=O)CNC(=O)[C@H](CO)NC(=O)[C@H](C)NC(=O)[C@H](CCC(N)=O)NC(=O)[C@H](CC(C)C)NC(=O)[C@H](CC(C)C)NC(=O)[C@H](CCCNC(=N)N)NC(=O)[C@H](CCC(N)=O)NC(=O)[C@H](CC(C)C)NC(=O)[C@H](CCCNC(=N)N)NC(=O)CNC(=O)[C@@H](N)CCC(N)=O)C(=O)N[C@@H](CC(C)C)C(=O)N[C@H](C(=O)N[C@@H](CCSC)C(=O)O)[C@@H](C)O (H-QGRLQRLLQASGNHAAGILTM-OH),1.22
10,CC[C@H](C)[C@H](NC(=O)CNC(=O)[C@H](C)NC(=O)[C@H](C)NC(=O)[C@H](Cc1cnc[nH]1)NC(=O)[C@H](CC(N)=O)NC(=O)CNC(=O)[C@H](C)NC(=O)CNC(=O)[C@H](Cc1cnc[nH]1)NC(=O)[C@H](CC(C)C)NC(=O)[C@H](CC(C)C)NC(=O)[C@H](CCC(=O)O)NC(=O)[C@H](Cc1ccc(O)cc1)NC(=O)[C@H](CC(C)C)NC(=O)[C@H](CCCNC(=N)N)NCCCCCC(=O)[C@H](CC(=O)O)NC(=O)[C@@H]1CCCN1C(=O)[C@H](CC(C)C)NC(=O)[C@@H]1CCCN1C(=O)[C@@H]1CCC(=O)N1)C(=O)N[C@@H](CC(C)C)C(=O)N[C@H](C(=O)N[C@@H](CC(C)C)C(=O)O)[C@@H](C)O (H-[X2]([Pro-Leu-Pro-pGlu])LYELLHGAGNHAAGILTL-OH),0.64
11,CC[C@H](C)[C@H](NC(=O)CNC(=O)[C@H](C)NC(=O)[C@H](C)NC(=O)[C@H](Cc1c[nH]cn1)NC(=O)[C@H](CC(N)=O)NC(=O)CNC(=O)[C@H](CO)NC(=O)[C@H](C)NC(=O)[C@H](CCC(N)=O)NC(=O)[C@H](CC(C)C)NC(=O)[C@H](CC(C)C)NC(=O)[C@H](CCCN=C(N)N)NC(=O)[C@@H]1CCCN1C(=O)[C@H](CC(C)C)NC(=O)[C@H](CCCN=C(N)N)NC(=O)CNC(=O)[C@H](CCC(N)=O)NC(=O)[C@H](CC(C)C)NC(=O)CN)C(=O)N[C@@H](CC(C)C)C(=O)N[C@H](C(=O)N[C@@H](CCSC)C(=O)O)[C@@H](C)O (stereo in doubt; form 1),0.28
12,CC[C@H](C)[C@H](NC(=O)CNC(=O)[C@H](C)NC(=O)[C@H](C)NC(=O)[C@H](Cc1c[nH]cn1)NC(=O)[C@H](CC(N)=O)NC(=O)CNC(=O)[C@H](CO)NC(=O)[C@H](C)NC(=O)[C@H](CCC(N)=O)NC(=O)[C@H](CC(C)C)NC(=O)[C@H](CC(C)C)NC(=O)[C@H](CCCN=C(N)N)NC(=O)[C@@H]1CCCN1C(=O)[C@H](CC(C)C)NC(=O)[C@H](CCCN=C(N)N)NC(=O)CNC(=O)[C@H](CCC(N)=O)NC(=O)[C@H](CC(C)C)NC(=O)CN)C(=O)N[C@@H](CC(C)C)C(=O)N[C@H](C(=O)N[C@@H](CCSC)C(=O)O)[C@@H](C)O (stereo in doubt; form 2),0.36

# Biological target: T2, Orexin/Hypocretin receptor type 1 (Homo sapiens, UniProt O43613)
# T2 sequence (O43613 whole entry): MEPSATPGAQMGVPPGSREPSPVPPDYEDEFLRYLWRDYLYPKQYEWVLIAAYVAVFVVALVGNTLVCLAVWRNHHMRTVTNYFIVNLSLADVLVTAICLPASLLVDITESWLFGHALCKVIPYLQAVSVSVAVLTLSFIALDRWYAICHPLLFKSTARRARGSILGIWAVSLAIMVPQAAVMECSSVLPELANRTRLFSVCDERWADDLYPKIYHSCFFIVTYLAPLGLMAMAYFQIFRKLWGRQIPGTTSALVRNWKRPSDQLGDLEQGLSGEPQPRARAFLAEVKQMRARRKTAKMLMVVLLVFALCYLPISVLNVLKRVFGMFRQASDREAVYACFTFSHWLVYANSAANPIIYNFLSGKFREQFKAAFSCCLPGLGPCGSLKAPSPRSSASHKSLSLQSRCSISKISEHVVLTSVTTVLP
# Assay: Effective agonist concentration to human orexin receptor type 1 determined using the Xlfit program
# Assay type: functional
row,Compound,EC50 [µM]
1,CC(C)C[C@H](NC(=O)[C@@H]1CCCN1C(=O)[C@@H]1CCC(=O)N1)C(=O)N1CCC[C@H]1C(=O)N[C@@H](CC(=O)O)C(=O)N[C@@H](CS)C(=O)N[C@@H](CS)C(=O)N[C@@H](CCCN=C(N)N)C(=O)N[C@@H](CCC(N)=O)C(=O)N[C@@H](CCCCN)C(=O)N[C@H](C(=O)O)[C@@H](C)O,> 1000
2,CC(C)C[C@H](NC(=O)[C@@H]1CCCN1C(=O)[C@@H]1CCC(=O)N1)C(=O)N1CCC[C@H]1C(=O)N[C@@H](CC(=O)O)C(=O)N[C@@H](CS)C(=O)N[C@@H](CS)C(=O)N[C@@H](CCCN=C(N)N)C(=O)N[C@@H](CCC(N)=O)C(=O)N[C@@H](CCCCN)C(=O)N[C@H](C(=O)N[C@@H](CS)C(=O)N[C@@H](CO)C(=O)O)[C@@H](C)O,> 1000
